Data as given in publication PMC10869683, “Structure of recombinant formate dehydrogenase from Methylobacterium extorquens (MeFDH1)” (Scientific Reports, 2024).

How the values were obtained:
[1] = target: T1, recombinant MeFDH1 (alpha/beta heterodimer), MeFDH1-β FMN / diaphorase site (Methylorubrum extorquens, UniProt C5ATT6); assay: cryo-EM structure, […] Å; format: binding; conditions: FMN site at the center of the beta subunit
T1 construct: gene fdh1B; same complex as P1, site in beta subunit; C-terminal His6 on alpha; expressed in M. extorquens AM1 fdh1 knockout; heterodimer ~169 kDa; with Formate dehydrogenase subunit alpha (tungsten-containing formate dehydrogenase alpha subunit)

[2] = target: T1, recombinant MeFDH1 (alpha/beta heterodimer), MeFDH1-β FMN / diaphorase site; assay: formate oxidation coupled to NAD+ reduction, A340; format: biochemical; conditions: 30 mM potassium formate, 0.5 mM NAD+, 50 mM MOPS, 30 °C; pH not given; site in beta inferred by homology
[3] = target: T2, recombinant MeFDH1 (alpha/beta heterodimer), MeFDH1-α active site (Methylorubrum extorquens, UniProt C5ATT7); conditions: 30 mM potassium formate, 0.5 mM NAD+, 50 mM MOPS, 30 °C; pH not given
T2 construct: gene fdh1A
T2 sequence (C5ATT7 1-989): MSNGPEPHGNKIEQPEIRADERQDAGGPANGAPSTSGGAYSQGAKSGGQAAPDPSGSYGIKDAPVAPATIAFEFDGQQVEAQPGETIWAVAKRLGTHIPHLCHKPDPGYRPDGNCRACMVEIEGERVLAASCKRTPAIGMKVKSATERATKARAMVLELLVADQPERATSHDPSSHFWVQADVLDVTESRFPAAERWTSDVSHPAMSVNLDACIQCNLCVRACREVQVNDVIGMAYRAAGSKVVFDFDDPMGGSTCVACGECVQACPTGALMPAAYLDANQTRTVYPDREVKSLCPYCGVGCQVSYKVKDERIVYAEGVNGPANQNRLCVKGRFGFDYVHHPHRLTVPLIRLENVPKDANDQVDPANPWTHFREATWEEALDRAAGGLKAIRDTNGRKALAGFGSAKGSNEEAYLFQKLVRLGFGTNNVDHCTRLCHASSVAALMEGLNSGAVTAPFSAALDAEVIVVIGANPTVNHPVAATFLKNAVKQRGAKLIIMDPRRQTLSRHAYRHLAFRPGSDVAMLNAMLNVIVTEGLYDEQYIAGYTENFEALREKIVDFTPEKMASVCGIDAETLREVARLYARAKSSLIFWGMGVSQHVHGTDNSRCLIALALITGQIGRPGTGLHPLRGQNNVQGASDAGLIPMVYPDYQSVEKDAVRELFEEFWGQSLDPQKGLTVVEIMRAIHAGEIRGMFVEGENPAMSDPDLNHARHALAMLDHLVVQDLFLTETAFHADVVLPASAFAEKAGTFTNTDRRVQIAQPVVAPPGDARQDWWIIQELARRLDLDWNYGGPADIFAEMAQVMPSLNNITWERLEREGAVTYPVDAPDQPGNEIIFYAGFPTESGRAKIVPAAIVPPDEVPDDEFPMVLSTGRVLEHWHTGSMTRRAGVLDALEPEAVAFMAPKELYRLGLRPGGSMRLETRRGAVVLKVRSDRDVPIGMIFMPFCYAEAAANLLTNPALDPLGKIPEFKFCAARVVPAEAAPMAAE
T2 sequence (C5ATT6 1-572 partner): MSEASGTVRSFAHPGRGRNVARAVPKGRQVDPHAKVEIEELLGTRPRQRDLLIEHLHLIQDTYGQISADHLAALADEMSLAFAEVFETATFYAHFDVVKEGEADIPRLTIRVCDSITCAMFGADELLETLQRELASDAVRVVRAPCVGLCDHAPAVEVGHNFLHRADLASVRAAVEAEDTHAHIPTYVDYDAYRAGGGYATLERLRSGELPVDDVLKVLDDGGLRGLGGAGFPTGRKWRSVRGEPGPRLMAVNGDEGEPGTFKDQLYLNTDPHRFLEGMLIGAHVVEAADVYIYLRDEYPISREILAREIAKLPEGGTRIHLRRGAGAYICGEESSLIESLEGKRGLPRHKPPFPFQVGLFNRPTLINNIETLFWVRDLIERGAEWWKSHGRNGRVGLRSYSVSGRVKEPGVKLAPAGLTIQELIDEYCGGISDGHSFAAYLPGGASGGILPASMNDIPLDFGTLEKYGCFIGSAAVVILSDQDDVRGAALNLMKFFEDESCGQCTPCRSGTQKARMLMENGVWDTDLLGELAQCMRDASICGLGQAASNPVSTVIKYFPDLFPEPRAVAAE

## Cc1cc2nc3c(=O)[nH]c(=O)nc-3n(C[C@H](O)[C@H](O)[C@H](O)COP(=O)(O)O)c2cc1C [FMN]
[1]
  cryo-EM structure, 2.8 Å: FMN is coordinated at the center of the MeFDH1-β subunit

## NC(=O)c1ccc[n+]([C@@H]2O[C@H](COP(=O)(O)OP(=O)(O)OC[C@H]3O[C@@H](n4cnc5c(N)ncnc54)[C@H](O)[C@@H]3O)[C@@H](O)[C@H]2O)c1 [NAD^+]
[2]
  formate oxidation coupled to NAD+ reduction, A340: measuring its formate oxidation reaction coupled with NAD^+ reduction

## O=CO [formate]
[3]
  formate oxidation coupled to NAD+ reduction, A340: measuring its formate oxidation reaction coupled with NAD^+ reduction
